How the values were obtained:
[1] = test system: ragweed; assay: Test A preemergence; type: in vivo, Ambrosia elatior; conditions: 0 to 100 scale where 0 is no effect and 100 is complete control
Procedure, shortened: (§1)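 Scoring: eye-based comparison with untreated controls, 0 for no effect through 100 for complete control, at about day 10. Treatments: directed soil spray preemergence; foliar spray postemergence on 2–10 cm plants at the one- to two-leaf stage. Medium: loam soil with sand.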

[2] = test system: Italian ryegrass; assay: Test A postemergence; type: in vivo, Lolium multiflorum
Procedure, shortened: as §1

[3] = test system: giant foxtail; assay: Test A postemergence; type: in vivo, Setaria faberii; conditions: Setaria faberi, post-emergence, 240 h
Procedure, shortened: as §1

[4] = test system: velvetleaf; assay: Test C postemergence; type: in vivo, Abutilon theophrasti; conditions: Abutilon theophrasti, post-emergence
Procedure, shortened: (§2)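 Seeds are planted in blended loam soil and sand and treated preemergence, while seedlings in a peat moss/vermiculite medium receive postemergence sprays at 2 to 18 cm height. All plants stay in the greenhouse for 13 to 15 days before visual comparison with controls on a 0–100 scale.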

[5] = test system: pigweed; assay: Test C postemergence; type: in vivo, Amaranthus retroflexus; conditions: Amaranthus retroflexus, post-emergence
Procedure, shortened: as §2

[6] = test system: large (Lg) crabgrass; assay: Test C preemergence; type: in vivo, Digitaria sanguinalis; conditions: Digitaria sanguinalis, pre-emergence
Procedure, shortened: as §2

[7] = test system: kochia; assay: Test C postemergence; type: in vivo, Kochia scoparia; conditions: Bassia scoparia, post-emergence
Procedure, shortened: as §2

[8] = test system: Italian ryegrass; assay: Test A preemergence; type: in vivo, Lolium multiflorum; conditions: 0 to 100 scale where 0 is no effect and 100 is complete control
Procedure, shortened: as §1

[9] = test system: chickweed; assay: Test C postemergence; type: in vivo, Stellaria media; conditions: Stellaria media, post-emergence
Procedure, shortened: as §2

[10] = test system: galium; assay: Test A postemergence; type: in vivo, Galium aparine
Procedure, shortened: as §1

[11] = test system: waterhemp; assay: Test C preemergence; type: in vivo, Amaranthus rudis; conditions: Amaranthus tuberculatus, pre-emergence, preemergence, read-out: Waterhemp plant response rating
Procedure, shortened: as §2

[12] = test system: corn; assay: Test A postemergence; type: in vivo, Zea mays; conditions: Zea mays, post-emergence, 240 h
Procedure, shortened: as §1

[13] = test system: yellow nutsedge; assay: Test C preemergence; type: in vivo, Cyperus esculentus; conditions: Cyperus, pre-emergence, preemergence, scale 0 (no effect) to 100 (complete control), read-out: Nutsedge, Yellow plant response rating
Procedure, shortened: as §2

[14] = test system: pigweed; assay: Test C preemergence; type: in vivo, Amaranthus retroflexus; conditions: Amaranthus retroflexus, pre-emergence, preemergence, read-out: Pigweed plant response rating
Procedure, shortened: as §2

[15] = test system: Italian ryegrass; assay: Test C postemergence; type: in vivo, Lolium multiflorum; conditions: Lolium multiflorum, post-emergence
Procedure, shortened: as §2

[16] = test system: blackgrass; assay: Test A postemergence; type: in vivo, Alopecurus myosuroides
Procedure, shortened: as §1

[17] = 31 g ai/ha, visual, approximately 10 days
[18] = 31 g ai/ha, 0 to 100 scale, 0 no effect, 100 complete control
[19] = 125 g ai/ha, 0 to 100 scale where 0 is no effect and 100 is complete control
[20] = 16 g ai/ha, scale 0 to 100 (0 no effect, 100 complete control)
[21] = 62 g ai/ha, scale 0 (no effect) to 100 (complete control)
[22] = 125 g ai/ha, scale 0 (no effect) to 100 (complete control)

Structure (SMILES): Fc1cccc(Oc2ncc(Cl)cn2)c1-n1cc(C(F)F)nn1 [Compound 141, 5-chloro-2-[2-[4-(difluoromethyl)-1H-1,2,3-triazol-1-yl]-3-fluorophenoxy]pyrimidine]
- Plant response rating, Ragweed [1, 17]: 90
- Plant response rating, Ragweed ([1]; 125 g ai/ha): 100
- Plant response rating, Ryegrass, Italian [2, 18]: 60
- Ryegrass, Italian plant response rating [2, 19]: 80
- pest or weed control at 31 g/ha ([3]; 31 g ai/ha, 0 to 100 scale, 0 no effect, 100 complete control, read-out: Plant response rating, Foxtail, Giant): 90%
- pest or weed control at 125 g/ha ([3]; 125 g ai/ha, 0 to 100 scale where 0 is no effect and 100 is complete control, read-out: Foxtail, Giant plant response rating): 100%
- pest or weed control at 16 g/ha ([4]; 16 g ai/ha, postemergence, 0 is no effect, 100 is complete control, read-out: Plant response rating (0 to 100), Velvetleaf): 80%
- pest or weed control at 125 g/ha ([4]; 125 g ai/ha, postemergence, visual rating, scale 0 to 100 (0 no effect, 100 complete control), read-out: Plant response rating, Velvetleaf): 100%
- pest or weed control at 62 g/ha ([4]; Postemergence, 62 g ai/ha, scale 0 to 100 (0 no effect, 100 complete control), read-out: Plant response rating, Velvetleaf): 100%
- pest or weed control at 16 g/ha ([5]; 16 g ai/ha, postemergence, 0 is no effect, 100 is complete control, read-out: Plant response rating (0 to 100), Pigweed): 90%
- pest or weed control at 125 g/ha ([5]; 125 g ai/ha, postemergence, visual rating, scale 0 to 100 (0 no effect, 100 complete control), read-out: Plant response rating, Pigweed): 98%
- pest or weed control at 62 g/ha ([5]; Postemergence, 62 g ai/ha, scale 0 to 100 (0 no effect, 100 complete control), read-out: Plant response rating, Pigweed): 100%
- pest or weed control at 16 g/ha ([6]; 16 g ai/ha, preemergence, scale 0 to 100 (0 no effect, 100 complete control), read-out: Crabgrass, Large plant response rating): 100%
- pest or weed control at 62 g/ha ([6]; 62 g ai/ha, preemergence, scale 0 (no effect) to 100 (complete control), read-out: Crabgrass, Large plant response rating): 100%
- pest or weed control at 125 g/ha ([6]; 125 g ai/ha, preemergence, scale 0 (no effect) to 100 (complete control), read-out: Crabgrass, Large plant response rating): 100%
- pest or weed control at 31 g/ha ([6]; Preemergence, 31 g ai/ha, scale 0 to 100, 0 no effect, 100 complete control, read-out: Plant response rating, Crabgrass, Large): 100%
- pest or weed control at 16 g/ha ([7]; 16 g ai/ha, postemergence, 0 is no effect, 100 is complete control, read-out: Plant response rating (0 to 100), Kochia): 100%
- pest or weed control at 125 g/ha ([7]; 125 g ai/ha, postemergence, visual rating, scale 0 to 100 (0 no effect, 100 complete control), read-out: Plant response rating, Kochia): 100%
- pest or weed control at 62 g/ha ([7]; Postemergence, 62 g ai/ha, scale 0 to 100 (0 no effect, 100 complete control), read-out: Plant response rating, Kochia): 100%
- Plant response rating, Ryegrass, Italian [8, 17]: 30
- Plant response rating, Ryegrass, Italian ([8]; 125 g ai/ha): 80
- pest or weed control at 16 g/ha ([9]; 16 g ai/ha, postemergence, 0 is no effect, 100 is complete control, read-out: Plant response rating (0 to 100), Chickweed): 70%
- pest or weed control at 125 g/ha ([9]; 125 g ai/ha, postemergence, visual rating, scale 0 to 100 (0 no effect, 100 complete control), read-out: Plant response rating, Chickweed): 100%
- pest or weed control at 62 g/ha ([9]; Postemergence, 62 g ai/ha, scale 0 to 100 (0 no effect, 100 complete control), read-out: Plant response rating, Chickweed): 95%
- Plant response rating, Galium [10, 18]: 100
- Galium plant response rating [10, 19]: 100
- pest or weed control at 16 g/ha [11, 20]: 100%
- pest or weed control at 62 g/ha [11, 21]: 100%
- pest or weed control at 125 g/ha [11, 22]: 100%
- Corn plant response rating (crop injury, 0 = no effect, 100 = complete kill) at 31 g/ha [12, 18]: 30%
- plant injury at 125 g/ha ([12]; 125 g ai/ha, 0 to 100 scale where 0 is no effect and 100 is complete control, read-out: Corn plant response rating): 60%
- pest or weed control at 62 g/ha ([13]; 62 g ai/ha): 70%
- pest or weed control at 125 g/ha ([13]; 125 g ai/ha): 95%
- pest or weed control at 16 g/ha [14, 20]: 100%
- pest or weed control at 62 g/ha [14, 21]: 100%
- pest or weed control at 125 g/ha [14, 22]: 100%
- pest or weed control at 16 g/ha ([15]; 16 g ai/ha, postemergence, 0 is no effect, 100 is complete control, read-out: Plant response rating (0 to 100), Ryegrass, Italian): 0%
- pest or weed control at 125 g/ha ([15]; 125 g ai/ha, postemergence, visual rating, scale 0 to 100 (0 no effect, 100 complete control), read-out: Plant response rating, Ryegrass, Italian): 40%
- pest or weed control at 62 g/ha ([15]; Postemergence, 62 g ai/ha, scale 0 to 100 (0 no effect, 100 complete control), read-out: Plant response rating, Ryegrass, Italian): 5%
- Plant response rating, Blackgrass [16, 18]: 90
- Blackgrass plant response rating [16, 19]: 100

From patent publication US9695155B2, “Herbicidal substituted pyrimidinyloxy benzene compounds” (E. I. DU PONT DE NEMOURS AND COMPANY, priority 2013, dated 2017)
